Data set [1] relates to M. smegmatis and M. tuberculosis growth. As to the kind of experiment: MIC in the presence of 5 mM D-alanine in the growth medium. The note with it: data not shown. The format is cell-based.
A further data set relates to M. smegmatis. In words: Microtiter broth dilution MIC, M. smegmatis. The class given is cell-based. For orientation: Broth dilution looks for growth in wells or tubes with falling amounts of substance.
The test system of another data set is M. tuberculosis H37Rv. In words: Microtiter broth dilution MIC, M. tuberculosis H37Rv. The class given is cell-based. The conditions noted are these: Mycobacterium tuberculosis.
Another data set concerns M. tuberculosis. As to the kind of experiment: Microtiter broth dilution MIC, M. tuberculosis. The note with it: Mycobacterium tuberculosis, read-out: Mtb MIC. The format is cell-based.
Data set [2] has as its target T1, M. smegmatis alanine racemase (Mycolicibacterium smegmatis, UniProt P94967).
T1 sequence (P94967 1-389): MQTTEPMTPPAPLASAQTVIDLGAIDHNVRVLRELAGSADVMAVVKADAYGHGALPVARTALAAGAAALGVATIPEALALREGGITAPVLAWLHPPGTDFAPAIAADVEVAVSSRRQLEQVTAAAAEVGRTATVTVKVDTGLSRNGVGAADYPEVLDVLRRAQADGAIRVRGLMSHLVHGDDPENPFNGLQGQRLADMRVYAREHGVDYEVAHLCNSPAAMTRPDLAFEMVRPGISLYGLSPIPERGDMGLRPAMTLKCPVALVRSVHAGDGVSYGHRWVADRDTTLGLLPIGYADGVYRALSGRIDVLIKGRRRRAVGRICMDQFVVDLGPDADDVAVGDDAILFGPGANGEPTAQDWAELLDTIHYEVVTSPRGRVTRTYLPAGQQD
In words: Alanine racemase assay. The class given is biochemical.

Data set [3] addresses M. tuberculosis alanine racemase (Mycobacterium tuberculosis, UniProt P9WQA9). The format is biochemical.
The subject of a further data set is C[C@H](N)C(=O)O. In words: purified protein, by the assay type.
Substrate in the data set “Alanine racemase assay”: C[C@H](N)C(=O)O
In words: Alanine racemase assay. The class given is biochemical, M. smegmatis. The note with it: other: L-alanine to D-alanine, recombinant enzyme.

By MIC is commonly meant the lowest concentration found to suppress growth. The IC50 is the point on the concentration scale where inhibition reaches its midpoint. Low values mean greater potency, high ones weaker potency. A word on the Km: it is the concentration of substrate that gives half-maximal velocity. A word on the Vmax: it is the top rate of the reaction or transport when substrate is in excess.

Converted amounts (≈) assume the structure as drawn.

M. tuberculosis alanine racemase, sequence (P9WQA9 whole entry): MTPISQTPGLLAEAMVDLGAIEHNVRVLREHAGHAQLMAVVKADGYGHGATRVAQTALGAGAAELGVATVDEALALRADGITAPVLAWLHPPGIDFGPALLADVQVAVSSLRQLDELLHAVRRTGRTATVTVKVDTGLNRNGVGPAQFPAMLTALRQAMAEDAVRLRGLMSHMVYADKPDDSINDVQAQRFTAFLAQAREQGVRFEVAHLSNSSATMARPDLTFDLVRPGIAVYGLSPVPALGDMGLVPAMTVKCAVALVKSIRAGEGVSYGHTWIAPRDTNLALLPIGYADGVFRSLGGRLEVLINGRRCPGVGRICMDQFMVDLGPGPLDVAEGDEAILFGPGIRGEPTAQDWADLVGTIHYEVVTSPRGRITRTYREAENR

As to `N[C@@H]1CON=C1O` [CS, cycloserine], the “increase in MIC” value in data set [1] is reported as 3 fold. Besides, the “MSM MIC” value with M. smegmatis (2 days, Mueller Hinton broth) worked out at 25 µg/mL. Also, the MIC is 25 µg/mL (≈ 245 µM) with M. smegmatis (Mycolicibacterium smegmatis, 48 h, read-out: MSM MIC); 6.25 µg/mL (≈ 61.2 µM) against M. tuberculosis H37Rv; 6.25 µg/mL (≈ 61.2 µM) with M. tuberculosis. This molecule had an IC50 in data set [2] of over 100 µM.
Regarding `C[C@H](N)C(=O)O` [L-alanine], the Kcat in data set [3] is listed as 200; in data set [2] (L-alanine to D-alanine, recombinant enzyme) it was 4300.
“M. tuberculosis alanine racemase (Mycobacterium tuberculosis H37Rv)”: in the data set on C[C@H](N)C(=O)O, the Km was found to be 4 mM and the Vmax turned out to be 0.04 mM/min.

B1: M. smegmatis alanine racemase (Mycolicibacterium smegmatis) (protein)
chain: T1 sequence (P94967 1-389)
For the molecule B1, in “Alanine racemase assay”, the Km is recorded as 8.5 mM and the Vmax is given as 0.3 mM/min.

These data come from article PMC3700342 (Biochemical pharmacology, 2013).
